Experimental data taken from ChEMBL document CHEMBL1201862, “PubChem BioAssay data set” (2004).
Values joined by “and” are separate entries in the source; they are usually repeats but may differ in a detail not shown here. Equal entries are not always repeated.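 Exposure lasted 48 hours, with cells grown in 96-well plates and compounds tested at five concentrations. Abbreviation: GI50, concentration required for 50% inhibition of growth.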 Active and inactive are the calls of the source. Cut-off read from the data, not from the text of the source: active = GI50 up to about 1.1 µM and inactive = higher.

Assays:
Assay in all cases: NCI tumour cell line growth inhibition, 48 h
786-0 = system: 786-0
A498 = system: A498
CAKI-1 = system: CAKI-1
CCRF-CEM = system: CCRF-CEM
COLO 205 = system: COLO 205
DLD-1 = system: DLD-1
DMS-114 = system: DMS-114
DMS-273 = system: DMS-273
HCC 2998 = system: HCC 2998
HCT-15 = system: HCT-15
HL-60 = system: HL-60
HOP-18 = system: HOP-18
Hs-578T = system: Hs-578T
KM-20L2 = system: KM-20L2
LOX IMVI = system: LOX IMVI
LXFL 529 = system: LXFL 529
M19-MEL = system: M19-MEL
MCF7 = system: MCF7
MDA-N = system: MDA-N
MOLT-4 = system: MOLT-4
Malme-3M = system: Malme-3M
NCI-H226 = system: NCI-H226
NCI-H460 = system: NCI-H460
NCI/ADR-RES = system: NCI/ADR-RES
OVCAR-5 = system: OVCAR-5
PC-3 = system: PC-3
RXF 631 = system: RXF 631
SF-539 = system: SF-539
SK-MEL-28 = system: SK-MEL-28
SNB-78 = system: SNB-78
SR = system: SR
SW-620 = system: SW-620
UO-31 = system: UO-31
XF498 = system: XF498
A549 = system: A549
ACHN = system: ACHN
BT-549 = system: BT-549
DU-145 = system: DU-145
EKVX = system: EKVX
HCT-116 = system: HCT-116
HOP-62 = system: HOP-62
HOP-92 = system: HOP-92
HT-29 = system: HT-29
IGROV-1 = system: IGROV-1
K562 = system: K562
KM12 = system: KM12
M14 = system: M14
MDA-MB-231 = system: MDA-MB-231
MDA-MB-435 = system: MDA-MB-435
NCI-H23 = system: NCI-H23
NCI-H522 = system: NCI-H522
OVCAR-3 = system: OVCAR-3
OVCAR-4 = system: OVCAR-4
OVCAR-8 = system: OVCAR-8
RPMI-8226 = system: RPMI-8226
RXF 393 = system: RXF 393
SF-268 = system: SF-268
SF-295 = system: SF-295
SK-MEL-2 = system: SK-MEL-2
SK-MEL-5 = system: SK-MEL-5
SK-OV-3 = system: SK-OV-3
SN12C = system: SN12C
SNB-19 = system: SNB-19
SNB-75 = system: SNB-75
T47D = system: T47D
TK-10 = system: TK-10
U-251 = system: U-251
UACC-257 = system: UACC-257
UACC-62 = system: UACC-62

COc1cccc2c1C(=O)c1c(O)c3c(c(O)c1C2=O)C[C@@](O)(C(C)=O)C[C@@H]3OC1CC(N)C(O)C(C)O1 (stereo not given in full)
GI50 (786-0): < 17.8 nM (active) and 32.6 nM (active) | GI50 (A498): 146 nM (active) and 197 nM (active) | GI50 (CAKI-1): 81.8 nM (active) and 99.1 nM (active) | GI50 (CCRF-CEM): < 10 nM (active) and 12.8 nM (active) | GI50 (COLO 205): 156 nM (active) and 142 nM (active) | GI50 (DLD-1): 0.309 µM (active) | GI50 (DMS-114): 0.0371 µM (active) | GI50 (DMS-273): 0.0889 µM (active) | GI50 (HCC 2998): 154 nM (active) and 167 nM (active) | GI50 (HCT-15): 0.721 µM and 0.689 µM | GI50 (HL-60): < 11.4 nM (active) and 12.3 nM (active) | GI50 (HOP-18): 0.118 µM (active) | GI50 (Hs-578T): 168 nM (active) and 192 nM (active) | GI50 (KM-20L2): 0.194 µM (active) | GI50 (LOX IMVI): < 13.1 nM (active) and 24.9 nM (active) | GI50 (LXFL 529): 0.0743 µM (active) | GI50 (M19-MEL): 0.08 µM (active) | GI50 (MCF7): 0.00889 µM (active) | GI50 (MDA-N): 168 nM (active) and 98.9 nM (active) | GI50 (MOLT-4): < 10 nM (active) and 6.34 nM (active) | GI50 (Malme-3M): 30.3 nM (active) and 54.3 nM (active) | GI50 (NCI-H226): 24 nM (active) and 34.6 nM (active) | GI50 (NCI-H460): < 10 nM (active) and 5.94 nM (active) | GI50 (NCI/ADR-RES): 2.42 µM (inactive) and 4.61 µM (inactive) | GI50 (OVCAR-5): 201 nM (active) and 238 nM (active) | GI50 (PC-3): 48 nM (active) and 78.9 nM (active) | GI50 (RXF 631): 0.115 µM (active) | GI50 (SF-539): 39.1 nM (active) and 48.3 nM (active) | GI50 (SK-MEL-28): 167 nM (active) and 303 nM (active) | GI50 (SNB-78): 0.292 µM (active) | GI50 (SR): 8.39 nM (active) and < 13.5 nM (active) | GI50 (SW-620): < 16.7 nM (active) and 22.9 nM (active) | GI50 (UO-31): 412 nM (active) and 413 nM (active) | GI50 (XF498): 0.069 µM (active)

CS(=O)(=O)c1cc(=O)c2ccccc2s1
GI50 (786-0): 5.55 µM (inactive) | GI50 (A498): 17.1 µM (inactive) | GI50 (A549): 18.4 µM (inactive) | GI50 (ACHN): 2.74 µM (inactive) | GI50 (BT-549): 19.3 µM (inactive) | GI50 (CAKI-1): 2.07 µM (inactive) | GI50 (CCRF-CEM): 1.53 µM (inactive) | GI50 (COLO 205): 1.76 µM (inactive) | GI50 (DLD-1): 1.91 µM (inactive) | GI50 (DMS-114): 4.82 µM (inactive) | GI50 (DMS-273): 8.77 µM (inactive) | GI50 (DU-145): 16.1 µM (inactive) | GI50 (EKVX): 9.06 µM (inactive) | GI50 (HCC 2998): 14 µM (inactive) | GI50 (HCT-116): 1.96 µM (inactive) | GI50 (HCT-15): 2.25 µM | GI50 (HL-60): 1.84 µM (inactive) | GI50 (HOP-18): 3.85 µM (inactive) | GI50 (HOP-62): 20.5 µM (inactive) | GI50 (HOP-92): 1.8 µM (inactive) | GI50 (HT-29): 5.01 µM (inactive) | GI50 (Hs-578T): 26.6 µM (inactive) | GI50 (IGROV-1): 18.5 µM (inactive) | GI50 (K562): 1.33 µM (inactive) | GI50 (KM-20L2): 11.7 µM (inactive) | GI50 (KM12): 15.5 µM (inactive) | GI50 (LOX IMVI): 6.68 µM (inactive) | GI50 (LXFL 529): 1.63 µM (inactive) | GI50 (M14): 1.85 µM (inactive) | GI50 (M19-MEL): 7.69 µM (inactive) | GI50 (MCF7): 2.72 µM (inactive) | GI50 (MDA-MB-231): 15 µM (inactive) | GI50 (MDA-MB-435): 11 µM (inactive) | GI50 (MDA-N): 4.46 µM (inactive) | GI50 (MOLT-4): 1.72 µM (inactive) | GI50 (Malme-3M): 1.8 µM (inactive) | GI50 (NCI-H226): 13.7 µM (inactive) | GI50 (NCI-H23): 9.06 µM (inactive) | GI50 (NCI-H460): 18.1 µM (inactive) | GI50 (NCI-H522): 1.24 µM (inactive) | GI50 (NCI/ADR-RES): 18 µM (inactive) | GI50 (OVCAR-3): 2.61 µM (inactive) | GI50 (OVCAR-4): 2.9 µM (inactive) | GI50 (OVCAR-5): 11.8 µM (inactive) | GI50 (OVCAR-8): 2.93 µM (inactive) | GI50 (PC-3): 17.6 µM (inactive) | GI50 (RPMI-8226): 2.42 µM (inactive) | GI50 (RXF 393): 3.91 µM (inactive) | GI50 (RXF 631): 11 µM (inactive) | GI50 (SF-268): 14.1 µM (inactive) | GI50 (SF-295): 13.7 µM (inactive) | GI50 (SF-539): 13.2 µM (inactive) | GI50 (SK-MEL-28): 3.72 µM (inactive) | GI50 (SK-MEL-2): 15.3 µM (inactive) | GI50 (SK-MEL-5): 14.3 µM (inactive) | GI50 (SK-OV-3): 17.6 µM (inactive) | GI50 (SN12C): 9.53 µM (inactive) | GI50 (SNB-19): 17.5 µM (inactive) | GI50 (SNB-75): 16 µM (inactive) | GI50 (SNB-78): 4.99 µM (inactive) | GI50 (SR): 2.07 µM (inactive) | GI50 (SW-620): 1.86 µM (inactive) | GI50 (T47D): 3.08 µM (inactive) | GI50 (TK-10): 7.28 µM (inactive) | GI50 (U-251): 19.7 µM (inactive) | GI50 (UACC-257): 3.54 µM (inactive) | GI50 (UACC-62): 12.2 µM (inactive) | GI50 (UO-31): 15.7 µM (inactive) | GI50 (XF498): 2.14 µM (inactive)

CCCCCCCCC(=O)CCCCCCCCC(=O)O
GI50 (786-0): 22.9 µM (inactive) | GI50 (A498): 23.9 µM (inactive) | GI50 (A549): 19.7 µM (inactive) | GI50 (ACHN): 25.3 µM (inactive) | GI50 (CAKI-1): 34.5 µM (inactive) | GI50 (CCRF-CEM): 28.6 µM (inactive) | GI50 (COLO 205): 21.8 µM (inactive) | GI50 (DLD-1): 20.1 µM (inactive) | GI50 (DMS-114): 23 µM (inactive) | GI50 (DMS-273): 25.3 µM (inactive) | GI50 (EKVX): 28.4 µM (inactive) | GI50 (HCT-116): 21.6 µM (inactive) | GI50 (HL-60): 4.09 µM (inactive) | GI50 (HOP-18): 19.2 µM (inactive) | GI50 (HOP-62): 26.9 µM (inactive) | GI50 (HOP-92): 18.9 µM (inactive) | GI50 (HT-29): 23 µM (inactive) | GI50 (IGROV-1): 18.7 µM (inactive) | GI50 (K562): 18.9 µM (inactive) | GI50 (KM-20L2): 25.9 µM (inactive) | GI50 (KM12): 17.3 µM (inactive) | GI50 (LOX IMVI): 14.8 µM (inactive) | GI50 (LXFL 529): 27 µM (inactive) | GI50 (M14): 32.1 µM (inactive) | GI50 (M19-MEL): 47.5 µM (inactive) | GI50 (MOLT-4): 14.8 µM (inactive) | GI50 (Malme-3M): 31.3 µM (inactive) | GI50 (NCI-H226): 27.2 µM (inactive) | GI50 (NCI-H23): 30.3 µM (inactive) | GI50 (NCI-H460): 21.3 µM (inactive) | GI50 (NCI-H522): 25.5 µM (inactive) | GI50 (OVCAR-3): 18.8 µM (inactive) | GI50 (OVCAR-4): 50.2 µM (inactive) | GI50 (OVCAR-5): 24.8 µM (inactive) | GI50 (OVCAR-8): 17.3 µM (inactive) | GI50 (RPMI-8226): 16.7 µM (inactive) | GI50 (RXF 393): 27.4 µM (inactive) | GI50 (RXF 631): 21 µM (inactive) | GI50 (SF-268): 23.9 µM (inactive) | GI50 (SF-295): 26.4 µM (inactive) | GI50 (SF-539): 19.7 µM (inactive) | GI50 (SK-MEL-28): 36.1 µM (inactive) | GI50 (SK-MEL-2): 36.1 µM (inactive) | GI50 (SK-MEL-5): 15.5 µM (inactive) | GI50 (SK-OV-3): > 100 µM (inactive) | GI50 (SN12C): 25.6 µM (inactive) | GI50 (SNB-19): 61.1 µM (inactive) | GI50 (SNB-75): 37.2 µM (inactive) | GI50 (SNB-78): > 100 µM (inactive) | GI50 (SR): 16.2 µM (inactive) | GI50 (SW-620): 39.7 µM (inactive) | GI50 (TK-10): 33.3 µM (inactive) | GI50 (U-251): 25.1 µM (inactive) | GI50 (UACC-257): > 100 µM (inactive) | GI50 (UACC-62): 20.1 µM (inactive) | GI50 (UO-31): 33.3 µM (inactive) | GI50 (XF498): 34.2 µM (inactive)
